Data published in patent US12209102B2, “Heterocyclic compounds and uses thereof” (Kumquat Biosciences Inc., priority 2022, dated 2025).

Experiments:
Type in all cases: biochemical
K-Ras WT = target: T1, K-Ras WT (Homo sapiens, UniProt P01116); experiment: HTRF resonance energy transfer assay, K-Ras WT / SOS1 interaction; conditions: HTRF assay of Example 5; read-out: IC50 against K-Ras WT
T1 construct: made in house; host or cells: E. coli BL21 (DE3)
Text: (§1) This assay can be also used to assess a selective inhibition or reduction of signaling output of a mutant Ras protein relative to a wildtype, or relative to a different mutant Ras protein. For example, the equilibrium interaction of wildtype Kras or K-Ras mutant (e.g., wildtype or a mutant thereof) with SOS1 (e.g., hSOS1) can be assessed as a proxy or an indication for a subject compound's ability to bind and inhibit Ras protein. HTRF assay detects from (i) a fluorescence resonance energy transfer (FRET) donor (e.g., antiGST-Europium) that is bound to GST-tagged K-Ras mutant to (ii) a FRET acceptor (e.g., anti-6His-XL665) bound to a His-tagged hSOS1.
(§2) The assay buffer can contain˜5 mM HEPES pH 7.4, ˜150 mM NaCl, ˜ 1 mM DTT, 0.05% BSA and 0.0025%(v/v) Igepal. A Ras working solution is prepared in an assay buffer containing typically a suitable amount of the protein construct (e.g., GST-tagged K-Ras mutant) and the FRET donor (e.g., antiGST-Eu(K) from Cisbio, France). A SOS1 working solution is prepared in an assay buffer containing suitable amount of the protein construct (e.g., His-hSOS1) and the FRET acceptor (e.g., anti-6His-XL665 from Cisbio, France). A suitable amount of the protein construct will depend on the range of activity or range of IC50 values being detected or under investigation. For detecting IC50 within a range of 500 nM, the protein constructs of the same range of molarity can be utilized.
(§3) A fixed volume of DMSO with or without test compound is transferred into a 384-well plate. Ras working solution is added to all wells of the test plate. SOS1 working solution is added to all wells except for those that are subsequently filled the inhibitor control solution. Upon incubation for about 10 minutes or longer, the fluorescence is measured with a M1000Pro plate reader (Tecan) using HTRF detection (excitation 337 nm, emission 1: 620 nm, emission 2: 665 nm). Compounds are tested in duplicates at different concentrations (for example, 10 μM, 2.5 μM, 0.63 μM, 0.16 μM, 0.04 μM, 0.01 μM test compound). The ratiometric data (i.e., emission 2 divided by emission 1) is used to calculate IC50 values against Ras using GraphPad Prism (GraphPad software). Following this general procedure, samples were tested with or without a subject compound disclosed herein including compounds exemplified in Table 1 to assess their abilities to inhibit a K-Ras mutant relative to another mutant or WT. Signaling output measured in terms of IC50 values can be obtained, a ratio of IC50 against one mutant relative to another mutant can be calculated. For instance, a selective reduction of K-Ras G12D signaling output can be evidenced by a ratio greater than one. In particular, a selective reduction of K-Ras G12D signaling relative to K-Ras WT signaling is evidenced as the ratio of IC50 (against K-Ras WT) to IC50 (against K-Ras G12D) is greater than 1.

K-Ras G12S = target: T2, K-Ras G12S (Homo sapiens, UniProt P01116, G12S); experiment: HTRF resonance energy transfer assay, K-Ras G12S / SOS1 interaction; conditions: HTRF assay of Example 5; read-out: IC50 against K-Ras G12S
T2 construct: made in house; host or cells: E. coli BL21 (DE3)
Text: as §1, §2, §3

K-Ras G12V = target: T3, K-Ras G12V (Homo sapiens, UniProt P01116, G12V); experiment: HTRF resonance energy transfer assay, K-Ras G12V / SOS1 interaction; conditions: HTRF assay of Example 5; read-out: IC50 against K-Ras G12V
T3 construct: made in house; host or cells: E. coli BL21 (DE3)
Text: as §1, §2, §3

T3 sequence (P01116 1-188 isoform P01116-2 G12V): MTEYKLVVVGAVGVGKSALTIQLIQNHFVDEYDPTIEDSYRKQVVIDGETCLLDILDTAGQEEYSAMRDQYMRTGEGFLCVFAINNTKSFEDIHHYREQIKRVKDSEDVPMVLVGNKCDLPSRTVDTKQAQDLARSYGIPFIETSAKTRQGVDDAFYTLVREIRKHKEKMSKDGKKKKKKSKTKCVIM
T2 sequence (P01116 1-188 isoform P01116-2 G12S): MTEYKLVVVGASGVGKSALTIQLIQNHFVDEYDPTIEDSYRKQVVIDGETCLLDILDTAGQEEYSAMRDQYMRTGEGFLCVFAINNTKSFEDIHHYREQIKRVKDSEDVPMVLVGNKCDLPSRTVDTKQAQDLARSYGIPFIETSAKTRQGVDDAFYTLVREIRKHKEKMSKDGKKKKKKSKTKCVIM
T1 sequence (P01116 1-188 isoform P01116-2): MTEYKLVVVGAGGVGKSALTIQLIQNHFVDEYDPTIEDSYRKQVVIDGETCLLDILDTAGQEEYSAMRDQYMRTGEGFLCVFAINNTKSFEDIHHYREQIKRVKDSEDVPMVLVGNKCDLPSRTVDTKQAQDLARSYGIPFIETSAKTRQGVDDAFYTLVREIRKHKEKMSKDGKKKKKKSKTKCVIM

Structure (SMILES) | IC50 (K-Ras WT) [nM] | IC50 (K-Ras G12S) [nM] | IC50 (K-Ras G12V) [nM]
N#Cc1c(N)sc2c(F)ccc(-c3c(Cl)c4c5c(nc(OC[C@@]67CCCN6C[C@H](F)C7)nc5c3F)N(CC(F)F)C(C3CCN3C(=O)C3CN3)CO4)c12 (stereo partly drawn) [Compound 666, 2-amino-4-(5-(1-(aziridine-2-carbonyl)azetidin-2-yl)-8-chloro-4-(2,2-difluoroethyl)-10-fluoro-2-(((2R,7aS)-2-fluorotetrahydro-1H-pyrrolizin-7a(5H)-yl)methoxy)-5,6-dihydro-4H-[1,4]oxazepino[5,6,7-de]quinazolin-9-yl)-7-fluorobenzo[b]thiophene-3-carbonitrile] | < 100 | < 100 | 
N#Cc1c(N)sc2c(F)ccc(-c3c(Cl)c4c5c(nc(OC[C@@]67CCCN6C[C@H](F)C7)nc5c3F)N(CC(F)F)C(C3CCCN3C(=O)[C@H]3CN3)CO4)c12 (stereo partly drawn) [Compound 1007, 2-amino-4-(5-(1-((R)-aziridine-2-carbonyl)pyrrolidin-2-yl)-8-chloro-4-(2,2-difluoroethyl)-10-fluoro-2-(((2R,7aS)-2-fluorotetrahydro-1H-pyrrolizin-7a(5H)-yl)methoxy)-5,6-dihydro-4H-[1,4]oxazepino[5,6,7-de]quinazolin-9-yl)-7-fluorobenzo[b]thiophene-3-carbonitrile] | < 100 |  | 
N#Cc1c(N)sc2c(F)ccc(-c3c(Cl)c4c5c(nc(OC[C@@]67CCCN6C[C@H](F)C7)nc5c3F)N(CC(F)F)C(C3CN(C(=O)C5CN5)C3)CO4)c12 (stereo partly drawn) [Compound 762, 2-amino-4-(5-(1-(aziridine-2-carbonyl)azetidin-3-yl)-8-chloro-4-(2,2-difluoroethyl)-10-fluoro-2-(((2R,7aS)-2-fluorotetrahydro-1H-pyrrolizin-7a(5H)-yl)methoxy)-5,6-dihydro-4H-[1,4]oxazepino[5,6,7-de]quinazolin-9-yl)-7-fluorobenzo[b]thiophene-3-carbonitrile] | < 100 | < 100 | < 100
CN1c2nc(OC[C@@]34CCCN3C[C@H](F)C4)nc3c(F)c(-c4ccc(F)c5sc(N)c(C#N)c45)c(Cl)c(c23)OCC[C@H]1C1(F)CC1 [Compound 1221, 2-amino-4-((5S)-9-chloro-11-fluoro-5-(1-fluorocyclopropyl)-2-(((2R,7aS)-2-fluorotetrahydro-1H-pyrrolizin-7a(5H)-yl)methoxy)-4-methyl-4,5,6,7-tetrahydro-[1,5]oxazocino[4,3,2-de]quinazolin-10-yl)-7-fluorobenzo[b]thiophene-3-carbonitrile] | < 100 | < 100 | < 100
C=C(F)C1COc2c(Cl)c(-c3ccc(F)c4sc(N)c(C#N)c34)c(F)c3nc(OC[C@@]45CCCN4C[C@H](F)C5)nc(c23)N1CC(F)F (stereo partly drawn) [Compound 651, 2-amino-4-(8-chloro-4-(2,2-difluoroethyl)-10-fluoro-2-(((2R,7aS)-2-fluorotetrahydro-1H-pyrrolizin-7a(5H)-yl)methoxy)-5-(1-fluorovinyl)-5,6-dihydro-4H-[1,4]oxazepino[5,6,7-de]quinazolin-9-yl)-7-fluorobenzo[b]thiophene-3-carbonitrile] |  |  | < 100
CC(OC(F)F)C12CC(N3CCOc4c(Cl)c(-c5ccc(F)c6sc(N)c(C#N)c56)c(F)c5nc(OC[C@@]67CCCN6C[C@H](F)C7)nc3c45)(C1)C2 (stereo partly drawn) [Compound 1081, 2-amino-4-(8-chloro-4-(3-(1-(difluoromethoxy)ethyl)bicyclo[1.1.1]pentan-1-yl)-10-fluoro-2-(((2R,7aS)-2-fluorotetrahydro-1H-pyrrolizin-7a(5H)-yl)methoxy)-5,6-dihydro-4H-[1,4]oxazepino[5,6,7-de]quinazolin-9-yl)-7-fluorobenzo[b]thiophene-3-carbonitrile] | < 100 | < 100 | < 100
C[C@@H]1CC(CO)Oc2c(Cl)c(-c3ccc(F)c4sc(N)c(C#N)c34)c(F)c3nc(OC[C@@]45CCCN4C[C@H](F)C5)nc(c23)N1 (stereo partly drawn) [Compound 1210, 2-amino-4-((5R)-9-chloro-11-fluoro-2-(((2R,7aS)-2-fluorotetrahydro-1H-pyrrolizin-7a(5H)-yl)methoxy)-7-(hydroxymethyl)-5-methyl-4,5,6,7-tetrahydro-[1,5]oxazocino[4,3,2-de]quinazolin-10-yl)-7-fluorobenzo[b]thiophene-3-carbonitrile] |  |  | < 100

The remaining lines, values ahead:

IC50 (K-Ras WT) [nM] | IC50 (K-Ras G12S) [nM] | IC50 (K-Ras G12V) [nM] | Structure (SMILES)
< 100 | < 100 | < 100 | N#Cc1c(N)sc2c(F)ccc(-c3c(Cl)c4c5c(nc(OC[C@@]67CCCN6C[C@H](F)C7)nc5c3F)N(CC(F)F)C(c3cncs3)CO4)c12 (stereo partly drawn) [Compound 789, 2-amino-4-(8-chloro-4-(2,2-difluoroethyl)-10-fluoro-2-(((2R,7aS)-2-fluorotetrahydro-1H-pyrrolizin-7a(5H)-yl)methoxy)-5-(thiazol-5-yl)-5,6-dihydro-4H-[1,4]oxazepino[5,6,7-de]quinazolin-9-yl)-7-fluorobenzo[b]thiophene-3-carbonitrile]
< 100 | < 100 | < 100 | C[C@H](Oc1nc2c3c(c(Cl)c(-c4ccc(F)c5sc(N)c(C#N)c45)c(F)c3n1)OCCN2C1CCCOCC1)[C@@H]1CCCN1C (stereo partly drawn) [Compound 1121, 2-amino-4-(8-chloro-10-fluoro-2-((S)-1-((S)-1-methylpyrrolidin-2-yl)ethoxy)-4-(oxepan-4-yl)-5,6-dihydro-4H-[1,4]oxazepino[5,6,7-de]quinazolin-9-yl)-7-fluorobenzo[b]thiophene-3-carbonitrile]
 |  | < 100 | C[C@@H](O)[C@@H]1COc2c(Cl)c(-c3ccc(F)c4sc(N)c(C#N)c34)c(F)c3nc(OC[C@@]45CCCN4C[C@H](F)C5)nc(c23)N1CC(F)F [Compound 1111, 2-amino-4-((5S)-8-chloro-4-(2,2-difluoroethyl)-10-fluoro-2-(((2R,7aS)-2-fluorotetrahydro-1H-pyrrolizin-7a(5H)-yl)methoxy)-5-((R)-1-hydroxyethyl)-5,6-dihydro-4H-[1,4]oxazepino[5,6,7-de]quinazolin-9-yl)-7-fluorobenzo[b]thiophene-3-carbonitrile]
< 100 | < 100 |  | N#Cc1c(N)sc2c(F)ccc(-c3c(Cl)c4c5c(nc(OC[C@@]67CCCN6C[C@H](F)C7)nc5c3F)N(C3C5CC3N(C(=O)C(F)F)C5)CCO4)c12 (stereo partly drawn) [Compound 886, 2-amino-4-(8-chloro-4-(2-(2,2-difluoroacetyl)-2-azabicyclo[2.1.1]hexan-5-yl)-10-fluoro-2-(((2R,7aS)-2-fluorotetrahydro-1H-pyrrolizin-7a(5H)-yl)methoxy)-5,6-dihydro-4H-[1,4]oxazepino[5,6,7-de]quinazolin-9-yl)-7-fluorobenzo[b]thiophene-3-carbonitrile]
 | < 100 | < 100 | N#Cc1c(N)sc2c(F)ccc(-c3c(Cl)c4c5c(nc(OC[C@@]67CCCN6C[C@H](F)C7)nc5c3F)N(CC(F)F)[C@H](CNC=O)CO4)c12 [Compound 627, N-(((5R)-9-(2-amino-3-cyano-7-fluorobenzo[b]thiophen-4-yl)-8-chloro-4-(2,2-difluoroethyl)-10-fluoro-2-(((2R,7aS)-2-fluorotetrahydro-1H-pyrrolizin-7a(5H)-yl)methoxy)-5,6-dihydro-4H-[1,4]oxazepino[5,6,7-de]quinazolin-5-yl)methyl)formamide]
